Assay results taken from the NIST ThermoML archive (doi:10.1021/je800404f).
Numbers after ± are expanded uncertainties.

Assay: refractive index (Na D-line) (dimensionless)
Conditions: 295.1 K; 101.33 kPa; Liquid; Standard Abbe refractometry

| refractive index | Compound |
| --- | --- |
| 1.3441 ± 0.0024 | CC#N [acetonitrile] |
| 1.4322 ± 0.0024 | CCCCCCCCCO [nonan-1-ol] |
| 1.333 ± 0.0024 | O [water] |
| 1.4175 ± 0.0024 | CCCCCCC(=O)O [heptanoic acid] |
